# Source: patent publication US20040077709A1, “Neuronal death inhibitors” (DAIICHI PHARMACEUTICAL CO., LTD., priority 1999, published 2004)
# What was measured:
# [1] = test system: male mice; conditions: oral; cited from earlier work
# [2] = test system: EL mice (EL[s]); assay: DNA fragmentation (TdT labeling) in brain sections of EL mice after oral nefiracetam; type: in vivo; conditions: EL[s] mice aged 30 weeks, 10 mg/kg oral once a day
# From the text: Employed were three groups each constituting 6 mice aged 30 weeks, that is, EL mice (EL[s]) given an epileptogenic stimulus once a week and thus having a low threshold, EL mice (EL[ns]) not given an epileptogenic stimulus and free from epileptic seizure at least during observation and DDY mice as a control. Each group was compared with that consisting of 40 to 50 week old mice in order to omit the influence of aging. A section of 10 μm was fixed to a gelatin-coated sliding glass in a cryostat, followed by permeabilization with 0.1% sodium citrate and 0.1% Triton X-100 at 4° C. for 5 minutes. DNA fragmentation was detected by polymerizing a fluorescein-labeled nucleotide with the 3′-OH ends of the cleaved DNA by using terminal transferase (TdT). Reaction with an anti-fluorescein antibody conjugated with peroxidase (PD) or alkali phosphatase (AP) developed color, thereby enabling detection by an optical microscope. As a negative control, TdT(−) and as a positive control, a sample treated with DNAaseI were employed. Nefiracetam was orally administered to the test group (aged 30 weeks, EL[s]) once (10 mg/kg) a day. While thus controlling the occurrence of epileptic seizure, a relationship between the nefiracetam administration terms (1, 3, 5 and 7 days) and appearing frequency of DNA fragmentation was observed.
# As a result, DNA fragmentation was detected from neither DDY mice aged 30 weeks (adult) nor those aged 40 weeks (having an influence of aging) which served as a negative control. In the EL mice (EL[s]) having epileptic seizure, whether they were aged 30 weeks or 40 weeks, DNA fragmentation was recognized from their hippocampus and parietal cortex. In the EL mice (El[ns]) free from epileptic seizure, whether they were aged 30 weeks or 40 weeks, DNA fragmentation was recognized in only a narrower region at a lower frequency than the EL[s]. In their hippocampus, no DNA fragmentation was recognized.
# EL mice serve as a model of the region-specific secondary generalized epilepsy. Although having no severe tissue injury, they are known for accelerated production of free radicals in the hippocampus and parietal cortex constituting a partial complex seizure, a rise in NO and site-specific expression of the immediately early genes (c-fos, zif) during an epileptogenicity acquiring procedure.
# [3] = five days after the administration, FIG. 2
# [4] = single administration (one day), FIG. 1
compound,measurement,setting,value
"Cc1cccc(C)c1NC(=O)CN1CCCC1=O [nefiracetam, 2-oxo-1-pyrrolidinylacetic acid 2,6-dimethylanilide]",acute toxicity,[1],"2,005 mg/kg"
same,DNA fragmentation in the hippocampus,[2]; [3],disappeared
same,DNA fragmentation in the parietal cortex,[2]; [3],no change
same,DNA fragmentation in the hippocampus,[2]; [4],recognized
same,DNA fragmentation in the parietal cortex,[2]; [4],recognized
